Data as given in US10975123B2, “Mutant Akt-specific capture agents, compositions, and methods of using and making” (California Institute of Technology, priority 2014, dated 2021).
Entries after “also recorded” stand apart in the source; their conditions may differ. Where a SMILES comes first, the peptide text is derived from it. [ ]: non-standard residue; d: D form.

What was measured:
full length Akt1E17K = full length Akt1E17K (Homo sapiens, UniProt P31749, E17K); experiment: Fluorescence polarization binding to full-length E17K Akt1; details: yleaf peptide 4, fluorescence polarization in solution, triplicate
Experimental: FIG. 2: Anchor ligand structure and characterization. (FIG. 2A) The peptide anchor ligand, yleaf (SEQ ID NO: 43), which was discovered using the epitope-targeting technique. The different sets of R groups indicate the modifications that were made to perform the various experiments described. (FIG. 2B) Point ELISA for specificity obtained by immobilizing biotinylated yleaf (SEQ ID NO: 43) anchor ligand 2 onto a Neutravidin plate, then incubating with a 6 His-tagged epitope (“6 His” disclosed as SEQ ID NO: 4) 3. […] (FIG. 2C) Binding curves of yleaf (SEQ ID NO: 43) anchor ligand 4 to the full-length WT or E17K mutant Akt1 proteins obtained in solution by fluorescence polarization. A saturation point for the WT ligand was not reached due to the prohibitively high protein concentration required. (FIG. 2D) Full binding curves of yleaf (SEQ ID NO: 43) anchor ligand 4 to the WT or E17K mutant epitopes. […] All assays were performed in triplicate and averaged. Error bars indicate standard deviation.
FIG. 5: The PCC agent triligand development strategy, structure, and inhibition data. (FIG. 5A) The yleaf (SEQ ID NO: 43) anchor ligand with a C-terminal alkyne 2 was screened against an azide-terminated library in the presence of the full-length PH Domain to identify a biligand. The biligand 7 was then appended with an N-terminal azide and screened against an alkyne library to identify a triligand. […]

[1] = biological target: T1, E17K mutant PH Domain (PHD) of Akt1 (Homo sapiens, UniProt P31749, E17K); experiment: Streptavidin-agarose immunoprecipitation (pulldown), E17K; format: binding; details: streptavidin agarose, 1xTBS, western blot band size, in words
T1 construct: The first 124 N-terminal amino acids from full length Akt1 were used as the PH Domain DNA; made in house; host or cells: E. coli
Experimental: (§1) Four biligand candidates were chosen based on their hydrophobicity and sequence homology using principal component analysis (FIG. 25). Biligands were synthesized by coupling the 2° ligand onto Rink Amide Resin on the Titan peptide synthesizer. The amide group on the end of the Lys(N3) was capped by shaking the resin with 2 mL acetic anhydride, 2 mL NMP and 0.5 mL DIEA for 3×10 minutes, then washed with NMP. FMOC-Propargylglycine-Otbu (Pra) was clicked onto the Lys(N3) on the 2° ligand by incubating 2 eq of the Pra amino acid with 2 eq CuI and 2 eq ascorbic acid with 1 eq azide on resin in 20% piperidine/NMP for 3 hours. The resin was washed 5×4 mL with a chelating solution of 1 g sodium diethyldithiocarbamate in 20 mL NMP and 1 mL DIEA. The anchor was then built onto the 2° ligand on bead, and an N-terminal PEG5-biotin tag were added. Assays were performed exactly as for the anchor ligands, except for two key differences. The biligand assays were done with 6 ug of GST-tagged PHD protein, instead of the untagged PHD that was used in the anchor pulldowns. The pull-downs were also conducted out of 1% serum in 1×TBS, as opposed to just 1×TBS.
(§2) Pulldown assays were done on Streptavidin Agarose resin from Invitrogen. The resin was incubated with N-terminal biotinylated anchor peptide candidates identified via the ClusterLigand sequence analysis. The anchor candidate coated beads were then incubated with either the wildtype or mutant protein to compare the selectivity of the ligands, as well as the binding ability. The bound protein was eluted and western blotted to compare the amount of protein present for each sample.
(§3) Relative protein band sizes were analyzed to compare binding between the anchor candidates and were used to determine selectivity for either wildtype or mutant PH Domain (FIG. 11). […] Both of these ligands look fairly selective for their respective PH Domain.

[2] = biological target: T2, wildtype PH Domain (PHD) of Akt1 (Homo sapiens, UniProt P31749); experiment: Streptavidin-agarose immunoprecipitation (pulldown), WT; format: binding; details: streptavidin agarose, 1xTBS, western blot band size, in words
T2 construct: The first 124 N-terminal amino acids from full length Akt1 were used as the PH Domain DNA; made in house; host or cells: E. coli
Experimental: as §1, §2, §3

[3] = system: E17K 33-mer epitope vs WT 33-mer epitope (6His-tagged); experiment: Point ELISA with anchor ligand and 33-mer epitope; format: binding; details: PEG-biotin-modified yleaf on neutravidin plate; epitope 100 nM-1 μM, in words
Experimental: The selectivity of the yleaf (SEQ ID NO: 43) peptide for the E17K 33-mer epitope was also tested in an ELISA assay format. For these assays, the WT or E17K 33-mer peptide fragments were captured using the PEG-biotin-modified yleaf (SEQ ID NO: 43) ligand immobilized on a neutravidin-coated plate.
For these assays, 100 nM Biotin-PEG5-yleaf (SEQ ID NO: 43) (FIG. 12) was immobilized for one hour on a neutravidin-coated ELISA plate (Pierce). The plate was blocked in 5% BSA in 1×TBS for one hour, then again overnight at room temperature. The immobilized anchor was then incubated with either 1 μM or 100 nM wildtype 33-mer epitope or 1 μM or 100 nM E17K mutant 33-mer epitope for one hour. The plate was washed three times with 1×TBS+0.1% Tween-20 and tapped dry. The epitope was then detected by a 1:1,000 dilution of an anti-his mouse mAb (ab18184, Abcam) for one hour, washed as above, and then detected with 1:10,000 dilution of an anti-mouse HRP-conjugated goat pAb (Abcam) for one hour. The plate was once again washed and developed with a 1:1 TMB substrate (KMB) for 15 minutes. To graph the data, the blank (epitope and antibodies binding to plate with no anchor ligand present) was subtracted from the triplicate sample values. […] The triplicate values were then graphed (FIG. 1C) with their error bars and the p-values were calculated by GraphPad.

T1 sequence (P31749 1-124 E17K): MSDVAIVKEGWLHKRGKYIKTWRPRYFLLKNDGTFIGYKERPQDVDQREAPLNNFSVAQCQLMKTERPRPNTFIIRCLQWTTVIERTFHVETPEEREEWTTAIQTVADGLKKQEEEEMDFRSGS
T2 sequence (P31749 1-124): as the sequence (P31749 1-124 E17K) above, with K17E counted along it
Sequence of full length Akt1E17K (P31749 whole entry E17K): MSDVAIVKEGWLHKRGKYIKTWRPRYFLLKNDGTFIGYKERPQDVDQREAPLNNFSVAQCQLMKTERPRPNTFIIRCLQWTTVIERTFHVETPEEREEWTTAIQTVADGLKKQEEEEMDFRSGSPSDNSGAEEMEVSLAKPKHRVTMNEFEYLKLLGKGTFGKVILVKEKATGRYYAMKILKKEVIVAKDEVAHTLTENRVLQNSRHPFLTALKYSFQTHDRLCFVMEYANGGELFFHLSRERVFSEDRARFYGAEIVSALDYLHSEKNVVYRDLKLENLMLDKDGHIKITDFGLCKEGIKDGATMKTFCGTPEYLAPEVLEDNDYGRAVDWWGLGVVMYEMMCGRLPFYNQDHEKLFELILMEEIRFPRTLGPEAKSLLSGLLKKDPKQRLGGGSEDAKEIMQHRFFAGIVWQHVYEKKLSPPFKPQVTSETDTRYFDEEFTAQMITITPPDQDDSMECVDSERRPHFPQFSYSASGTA

`CC(C)C[C@@H](NC(=O)[C@H](N)Cc1ccc(O)cc1)C(=O)N[C@H](CCC(=O)O)C(=O)N[C@H](C)C(=O)N[C@H](Cc1ccccc1)C(N)=O` [yleaf] (H-[dY][dL][dE][dA][dF]-NH2; N-terminus assumed) was tested, and the Kd (full length Akt1E17K) was 54 ± 7 nM, the “pulldown of E17K mutant PH Domain by biotinylated anchor candidates” value [1] was “a distinctively stronger binding to the E17K protein relative to the WT; also recorded: the greatest binding to the mutant” and the “pulldown of wildtype PH Domain by biotinylated anchor candidates” value [2] was “the least binding to the wildtype”. For the same compound, the “selectivity for E17K 33-mer fragment over WT in point ELISA” value [3] was “significant selectivity for the E17K fragment over the WT”.
